According to patent US12138243B2, “Antiviral use of FABP4 modulating compounds” (CRESCENTA BIOSCIENCES, priority 2021, dated 2024):

Test system: human coronavirus OC43
Assay: Antiviral activity: human coronavirus OC43 replication in differentiated 3T3-L1 mouse adipocyte cells, viral titers by TCID50 assay in MRC5 cells
Format: cell-based
Settings: median fold reduction of virus titers vs vehicle control (DMSO); final compound concentration 10 µM; medium collected 24 hours after infection; differentiated 3T3-L1 adipocytes, 0.05 TCID50 per cell
Protocol: Activity of compounds affecting viral replication and disease was tested against coronavirus replication in differentiated 3T3-L1 mouse adipocyte cells using human coronavirus OC43 as a model virus. 3T3-L1 preadipocytes (ATCC) were routinely cultured in a growth medium composed of DMEM high-glucose (Sigma), 10% FBS (Gibco), 10 U/ml penicillin and 10 μg/ml streptomycin (P/S; Gibco) in a standard cell culture incubator at 37° C. To induce adipogenic differentiation, a confluent layer of 3T3-L1 cells were incubated with the growth medium containing 2 μM rosiglitazone, 1 μM dexamethasone, 500 μM IBMX, and 1 μg/ml insulin (Sigma). Forty-eight (48) hours later (on day 2) and on days 4 and 6, medium of the cells was replaced with fresh medium containing 1 μg/ml insulin. On days 8 and 10, the medium was refreshed with regular growth medium and addition of insulin was omitted. On day 11 or 12, the cells were infected with human coronavirus OC43 (ATCC) at a multiplicity of 0.05 TCID50 (tissue-culture infectious-dose 50) per cell in DMEM containing 2% heat-inactivated FBS and P/S. One hour after infection, medium of the cells were replaced with fresh medium containing either the indicated FABP4 modulating compounds or the vehicle in which the compounds were dissolved (DMSO). The final compound concentration was 10 µM and final concentration of DMSO was 0.1% (v/v). The cells were incubated at 35° C. during the course of infection and compound treatment. Twenty-four hours after infection, medium of the cells was collected, cleared by centrifugation at 2,000g for 5 minutes, and frozen at −80 degrees C. until further processing. The viral titers in the samples were determined by TCID50 assay in MRC5 cells (ATCC) using Reed-Munch method, and median fold reduction of virus titers in compound treated cells compared to vehicle control was calculated.

## CCCCCCC1CCCc2c(n(Cc3cccc(C(N)=O)c3)c3c(C(=O)O)cccc23)C1 (centres unmarked) [Compound 5, 5-[(3-carbamoylphenyl)methyl]-7-hexyl-5H,6H,7H,8H,9H,10H-cyclohepta[b]indole-4-carboxylic acid]
  Antiviral activity group: B (between 10- to 99-fold)

## CCCCCCC1CCCc2c(n(Cc3cccc(C#N)c3)c3c(C(=O)O)cccc23)C1 (centres unmarked) [Compound 6, 5-[(3-cyanophenyl)methyl]-7-hexyl-5H,6H,7H,8H,9H,10H-cyclohepta[b]indole-4-carboxylic acid]
  Antiviral activity group: A (reduced virus titers >100-fold)

## CCCCC1CCCCc2c1n(Cc1cccc(C#N)c1)c1c(C(=O)O)cccc21 (centres unmarked) [Compound 15, 6-butyl-5-[(3-cyanophenyl)methyl]-5H,6H,7H,8H,9H,10H-cyclohepta[b]indole-4-carboxylic acid]
  Antiviral activity group: B (between 10- to 99-fold)

## CCCCCCC1CCc2c(n(Cc3cccnc3)c3c(C(=O)O)cccc23)C1 (centres unmarked) [Compound 9, 2-hexyl-9-[(pyridin-3-yl)methyl]-2,3,4,9-tetrahydro-1H-carbazole-8-carboxylic acid]
  Antiviral activity group: A (reduced virus titers >100-fold)

## CCCCC1CCCCc2c1c1cccc(C(=O)O)c1n2Cc1cccc(C(N)=O)c1 (centres unmarked) [Compound 19, 10-butyl-5-[(3-carbamoylphenyl)methyl]-5H,6H,7H,8H,9H,10H-cyclohepta[b]indole-4-carboxylic acid]
  Antiviral activity group: C (between 2- to 9-fold)

## Clc1ccc2nc(N3CCCCC3)c(-c3nnn[nH]3)c(-c3ccccc3)c2c1 [Compound 22, 6-chloro-4-phenyl-2-(piperidin-1-yl)-3-(1H-tetrazol-5-yl)quinoline, reference compound]
  Antiviral activity group: A (reduced virus titers >100-fold)

## CCCCC1CCCc2c(n(Cc3cccc(C#N)c3)c3c(C(=O)O)cccc23)C1 (centres unmarked) [Compound 2, 7-butyl-5-[(3-cyanophenyl)methyl]-5H,6H,7H, 8H,9H,10H-cyclohepta[b]indole-4-carboxylic acid]
  Antiviral activity group: A (reduced virus titers >100-fold)

## CCCCC1CCc2c1n(Cc1cccc(C(N)=O)c1)c1c(C(=O)O)cccc21 (centres unmarked) [Compound 16, 3-butyl-4-[(3-carbamoylphenyl)methyl]-1H,2H,3H,4H-cyclopenta[b]indole-5-carboxylic acid]
  Antiviral activity group: C (between 2- to 9-fold)

## CCc1c(-c2ccccc2)c(-c2ccccc2)nn1-c1ccccc1-c1cccc(OCC(=O)O)c1 [Compound 21, 2-((2′-(5-Ethyl-3,4-diphenyl-1H-pyrazol-1-yl)-[1,1′-biphenyl]-3-yl)oxy)acetic acid, reference compound]
  Antiviral activity group: C (between 2- to 9-fold)

## CCCCCCC1CCc2c(n(Cc3ccccc3F)c3c(C(=O)O)cccc23)C1 (centres unmarked) [Compound 11, 9-[(2-fluorophenyl)methyl]-2-hexyl-2,3,4,9-tetrahydro-1H-carbazole-8-carboxylic acid]
  Antiviral activity group: A (reduced virus titers >100-fold)

## CCCCC1CCc2c(c3cccc(C(=O)O)c3n2Cc2cccc(C(N)=O)c2)C1 (centres unmarked) [Compound 20, 3-butyl-9-[(3-carbamoylphenyl)methyl]-2,3,4,9-tetrahydro-1H-carbazole-8-carboxylic acid]
  Antiviral activity group: C (between 2- to 9-fold)

## CCCCCCC1CCc2c(n(Cc3ccccc3C)c3c(C(=O)O)cccc23)C1 (centres unmarked) [Compound 10, 2-hexyl-9-[(2-methylphenyl)methyl]-2,3,4,9-tetrahydro-1H-carbazole-8-carboxylic acid]
  Antiviral activity group: A (reduced virus titers >100-fold)

## CCCCC1CCCc2c1n(Cc1cccc(C(N)=O)c1)c1c(C(=O)O)cccc21 (centres unmarked) [Compound 12, 1-butyl-9-[(3-carbamoylphenyl)methyl]-2,3,4,9-tetrahydro-1H-carbazole-8-carboxylic acid]
  Antiviral activity group: C (between 2- to 9-fold)

## CCCCC1CCCc2c(n(Cc3ccccc3C)c3c(C(=O)O)cccc23)C1 (centres unmarked) [Compound 4, 7-butyl-5-[(2-methylphenyl)methyl]-5H,6H,7H,8H,9H,10H-cyclohepta[b]indole-4-carboxylic acid]
  Antiviral activity group: A (reduced virus titers >100-fold)

## Cc1c(Cl)cccc1OCc1cc(=O)n2nc(-c3ccccc3)nc2[nH]1 [Compound 23, 5-((3-chloro-2-methylphenoxy)methyl)-2-phenyl-[1,2,4]triazolo[1,5-a]pyrimidin-7(4H)-one, reference compound]
  Antiviral activity group: B (between 10- to 99-fold)

## CCCCCCC1CCc2c(n(Cc3cccc(C(N)=O)c3)c3c(C(=O)O)cccc23)C1 (centres unmarked) [Compound 7, 9-[(3-carbamoylphenyl)methyl]-2-hexyl-2,3,4,9-tetrahydro-1H-carbazole-8-carboxylic acid]
  Antiviral activity group: B (between 10- to 99-fold)

## CCCCC1Cc2c(n(Cc3cccc(C#N)c3)c3c(C(=O)O)cccc23)C1 (centres unmarked) [Compound 18, 2-butyl-4-[(3-cyanophenyl)methyl]-1H,2H,3H,4H-cyclopenta[b]indole-5-carboxylic acid]
  Antiviral activity group: C (between 2- to 9-fold)

## CCCCC1CCCc2c1n(Cc1cccc(C#N)c1)c1c(C(=O)O)cccc21 (centres unmarked) [Compound 13, 1-butyl-9-[(3-cyanophenyl)methyl]-2,3,4,9-tetrahydro-1H-carbazole-8-carboxylic acid]
  Antiviral activity group: B (between 10- to 99-fold)

## CCCCCCC1CCc2c(n(Cc3cccc(C#N)c3)c3c(C(=O)O)cccc23)C1 (centres unmarked) [Compound 8, 9-[(3-cyanophenyl)methyl]-2-hexyl-2,3,4,9-tetrahydro-1H-carbazole-8-carboxylic acid]
  Antiviral activity group: B (between 10- to 99-fold)

## CCCCC1CCCc2c(n(Cc3ccc(C)cc3)c3c(C(=O)O)cccc23)C1 (centres unmarked) [Compound 3, 7-butyl-5-[(4-methylphenyl)methyl]-5H,6H,7H,8H,9H,10H-cyclohepta[b]indole-4-carboxylic acid]
  Antiviral activity group: B (between 10- to 99-fold)

## CCCCC1CCCc2c(n(Cc3cccc(C(N)=O)c3)c3c(C(=O)O)cccc23)C1 (centres unmarked) [Compound 1, 7-butyl-5-[(3-carbamoylphenyl)methyl]-5H,6H,7H,8H,9H,10H-cyclohepta[b]indole-4-carboxylic acid]
  Antiviral activity group: B (between 10- to 99-fold)

## CCCCC1CCCCc2c1n(Cc1cccc(C(N)=O)c1)c1c(C(=O)O)cccc21 (centres unmarked) [Compound 14, 6-butyl-5-[(3-carbamoylphenyl)methyl]-5H,6H,7H,8H,9H,10H-cyclohepta[b]indole-4-carboxylic acid]
  Antiviral activity group: B (between 10- to 99-fold)

## CCCCC1Cc2c(n(Cc3cccc(C(N)=O)c3)c3c(C(=O)O)cccc23)C1 (centres unmarked) [Compound 17, 2-butyl-4-[(3-carbamoylphenyl)methyl]-1H,2H,3H,4H-cyclopenta[b]indole-5-carboxylic acid]
  Antiviral activity group: C (between 2- to 9-fold)
